“Also recorded” adds a separate entry of the source.
Key:
Format in all cases: cell-based
[1] = tested on: CMV promoter activity in transformed (adenovirus) cells; assay: CMV promoter assay (gene transcription and translation, cytotoxic activity); details: read-out: IC50 (μM), CMV promoter assay
Description: This example illustrates data regarding proliferative activity of various inventive compounds for inducting CMV promoter activity. The CMV promoter assay measures gene transcription and translation activity wherein any active compounds will nave cytotoxic activity to inhibit cellular protein synthesis machinery in transformed (adenovirus) cells.

[2] = tested on: transformed cells (Ras 3T3) and normal 3T3 cells; assay: cytotoxicity in transformed and normal 3T3 cells; details: FIG. 9; five compounds
Method: A similar experiment is shown in FIG. 9 for five inventive compounds (see Table 1 […] for chemical names) showing differential cytotoxicity for the same normal and transformed cells.
Each inventive compound is investigated for cytotoxicity to determine appropriate doses for biological activity assays and to prevent cytotoxic reactions in in vitro assays when characterizing activity. Cells (e.g., NIH-3T3, Ras transformed 3T3 cells, malignant melanoma LD2 cells, etc.) are added to microtiter plates and drug is added about two days after plating. Cell viability is determined using a fluorescent viability stain (e.g., 2',7'-bis-(2-carboroxyethyl)-5-(and -6)-carboxyfluorescein acetoxymethyl ester, BCECF excitation 488 nm and emission 525 nm) 24, 48 or 72 hours after addition of the drug.
This example illustrates a comparison of cytotoxicity determinations for CT1595 in transformed cells (Ras 3T3) and in normal 3T3 cells at drug doses of 1, 10 and 100 μM in in vitro cell culture conditions (FIG. 8). […] A similar experiment is shown in FIG. 9 for five inventive compounds (see Table 1 above for chemical names) showing differential cytotoxicity for the same normal and transformed cells.

[3] = tested on: TNF release from monocytes in whole blood; assay: ex vivo human TNF model, LPS-mediated TNF release in whole blood; details: FIG. 14
Method: (§1) This model adds LPS to whole blood (normal human volunteers) to trigger a dose-dependent synthesis and extracellular release of TNF according to Desch et al. (Lymphokine Res. 8:141, 1989). The ex vivo model examines whether LPS-mediated release of TNF from monocytes in whole blood can be block by an inventive compound.
An ex vivo human sepsis model is described in Desch et al., Lymphokine Res. 8:141, 1989 and in Ooi et al., J. Exp. Med. 174:649, 1991. Briefly, whole blood from humans is incubated with LPS (endotoxin). TNF released from cells (mostly from monocytes) is measured. The inventive compounds lower TNF levels as compared with untreated controls in this model.
as §1, with “This example illustrates a comparative experiment comparing CT1595, CT1529 and CT2519 in an ex vivo human TNF model described herein. This assay is a predictive model for treatment and prevention of septic shock and sepsis syndrome. This” for “This”

human stromal cells = assay: inhibition of proliferation of human stromal cells stimulated with PDGF; details: FIG. 7; 50 ng/ml PDGF-BB, in words
Method: (§2) This assay is a model for restenosis and treatment of atherosclerosis and coronary artery disease. Stromal cells were starved in serum-free media for one day and then stimulated with 50 ng/ml PDGF-BB. The drags were added at the indicated concentrations one hour prior to PDGF stimulation. Tritiated thymidine was added for one day at the time of PDGF stimulation and the cells were harvested and counted by liquid scintillation counting 24 hrs later. Background counts (i.e., starved cells) were approximately 1% of control levels.
Another assay for measuring activity of the inventive compounds involves determining PDGF (platelet derived growth factor) proliferative response using human-derived stromal cells. Human stromal cells are plated (e.g., about 2000 cells per well) in defined media (e.g., 69% McCoy's, 12.5% fetal calf serum, 12.5% horse serum, 1% antibiotics, 1% glutamine, 1% vitamin supplement, 0.8% essential amino acids, 1% sodium pyruvate, 1% sodium bicarbonate, 0.4% non-essential amino acids and 0.36% hydrocortisone). Two to three days later, the stromal cells are starved in serum-free media. Twenty four hours later, the cells are treated with a stimulating agent, such as PDGF-AA, PDGF-BB or basic FGF (fibroblast growth factor) with or without IL-1α or TNF, and tritiated thymidine. Cell proliferation is determined by liquid scintillation counting.
as §2, with “drugs” for “drags”

mast cells = assay: mast cell degranulation, serotonin release assay; details: 100 μM
Description: A serotonin release assay is utilized to study the utility of the inventive compounds for treatment of asthma and allergy. This assay measures mast cell degranulation, which is an early phase reaction to allergen challenge. Mast cells grown in tissue culture are first loaded with ^3 H serotonin, which is incorporated into the granules in the cells. The mast cells are sensitized with antigen specific monoclonal IgE, and then triggered to degranulate with the specific antigen (dinitrophenol bound to BSA (DNP)). When the cells degranulate, ^3 H Serotonin is released into the medium, and can be measured directly. The ability of the inventive compounds to inhibit the degranulation response is determined by the decrease in ^3 H Serotonin released in the presence of drug and is represented as % INHIBITION. The IC50 of any given compound is determined by the ability of that compound to inhibit degranulation by 50%.
Specifically, the serotonin release assay seeds 2×10^5 cells in 0.5 ml medium in duplicate for spontaneous release, IgE+DNP, IgE+DNP+EtOH (vehicle control), and inventive compounds. One μCi [^3H ]-Serotonin/ml (i.e., 0.5 μCi/well) (NEN Research Products, cat. #NET-398 Hydroxytryptamine Binoxalate, 5-[1,2-^3 H(N)]-(Serotonin Binoxalate, [1,2-^3 H(N)]-)) and 1 μl/ml IgE is added. The cells are incubated for 18 hours at 37° C. in 5% CO2, washed twice with 0.5 ml Isotonic Buffer (25 mM disodium PIPES pH 7.1,100 mM NaCl, 5 mM KCl, 5 mM glucose, 0.4 mM MgCl2, 1 mM CaCl2, 0.1% BSA), and sterile filtered. 250 μl Isotonic Buffer is added per well and the plates are equilibrated in an incubator for about 10 min. Drug is added and cells are activated with 40 ng/ml DNP-BSA (1 mg/ml Diluted 1:200 in Isotonic Buffer) for 45 minutes using 2 μl/250 μl. Spontaneous release is determined in incubated cells with 250 μl Isotonic Buffer for 45 minutes and the reaction is stopped by removing supernatant and centrifuging at ~4000 rpm in microfuge for 15 seconds to remove any detached cells. Released radiolableled serotonin is counted. To determine amount of ^3 H-serotonin incorporated into the cells, (a) remove Isotonic Buffer and lyse cells by adding 250 μl 1% Triton-X100 in PBS, (b) add to 5 ml scintillation fluid, (c) wash 2× with Triton/PBS, and (d) add washes to scintillation tube. Percent serotonin release is calculated by dividing the amount of released serotonin by the sum of incorporated plus released serotonin and correcting for spontaneous released serotonin. Compound inhibition is calculated by dividing the percent serotonin release in the presence of a compound by the percent serotonin release in the absence of the compound.
This assay is described above and provides an in vitro model for an allergy and asthma therapeutic compound.

| SMILES | IC50 [1] | cytotoxic activity, normal and transformed 3T3 cells [2] | block of LPS-mediated TNF release [3] | inhibition of human stromal cell proliferation (human stromal cells) | inhibition at 100 µM (mast cells) |
| --- | --- | --- | --- | --- | --- |
| CC(CCCCn1c(=O)c2c(ncn2C)n(C)c1=O)OC(=O)CCl (stereo not shown) [CT1529, 1-(5-(chloroacetoxy)hexyl)-3,7-dimethylxanthine] | 100 µM | significant cytotoxic activity | could block TNF release in a dose-dependent fashion; also recorded: most effective agent at lower doses |  |  |
| CC(=O)OC(CBr)CCCCCCn1c(=O)c2c(ncn2C)n(C)c1=O (stereo not shown) [CT1514, 1-(7-acetoxy-8-bromooctyl)-3,7-dimethylxanthine] | > 500 µM |  |  | strongly inhibit proliferation |  |
| Cn1cnc2c1c(=O)n(CCCCCCOC(=O)CCl)c(=O)n2C [CT1527, 1-(6-(chloroacetoxy)hexyl)-3,7-dimethylxanthine] | 200 µM |  |  |  |  |
| CC(F)CCCCn1c(=O)c2c(ncn2C)n(C)c1=O (stereo not shown) [CT1577, 1-(5-fluorohexyl)-3,7-dimethylxanthine] | > 500 µM |  |  | strongly inhibit proliferation | 46% |
| CC(=O)OC(CBr)CCCCn1c(=O)c2ccccc2n(C)c1=O (stereo not shown) [CT1205, 3-(5-acetoxy-6-bromohexyl)-1-methylbenzoyleneurea] | 200 µM |  |  |  |  |
| CC(=O)OC(CBr)CCCCCCCn1c(=O)c(C)cn(C)c1=O (stereo not shown) [CT1908, 3-(8-acetoxy-9-bromononyl)-1-methylthymine] | 50 µM |  |  |  |  |
| Cn1cnc2c1c(=O)n(CCCCC(O)CN=[N+]=[N-])c(=O)n2C (stereo not shown) [CT1517, 1-(6-azido-5-hydroxyhexyl)-3,7-dimethylxanthine] | > 500 µM |  |  | strongly inhibit proliferation |  |
| Cn1cnc2c1c(=O)n(CCCCCCBr)c(=O)n2C [CT1589, 1-(6-bromohexyl)-3,7-dimethylxanthine] | 125 µM |  |  | strongly inhibit proliferation | 53% |
| CC(=O)OC(CBr)CCCCCCCCn1c(=O)c2c(ncn2C)n(C)c1=O (stereo not shown) [CT1583, 1-(9-acetoxy-10-bromodecyl)-3,7-dimethylxanthine] | > 500 µM |  |  | strongly inhibit proliferation |  |
| Cn1cnc2c1c(=O)n(CCCCCCCl)c(=O)n2C [CT1525, 1-(6-chlorohexyl)-3,7-dimethylxanthine] | > 500 µM |  |  |  |  |
